Data set [1] in a line: Tolerability of DNP-GN3 and DNP-OH3 in mice (body weight, AST, ALT). Format: in vivo. The procedure:
FIGS. 93A-93C illustrate that DNP-GN3 and DNP-OH3 are not toxic to mice at all tested concentrations. FIG. 93A: mouse body weight following treatment with DNP-GN3 or DNP-OH3. Statistical differences were analyzed by T test. FIG. 93B: levels of aspartate transaminase (AST) in treated mice. Dashed lines represent the normal range. FIG. 93C: levels of alanine transaminase (ALT) in treated mice. Dashed lines represent the normal range.

In data set [2] the test system is HepG2 cells. The experiment in a line: Western blot of α-DNP antibody degradation in HepG2 cells treated with DNP-GN3. Particulars: anti-Alexa Fluor 488, FIG. 92A. Format: cell-based, human. The procedure:
In addition, western blotting with an antibody directed to Alexa Fluor 488 was used to determine if endocytosed fluorescently labeled α-DNP antibodies are degraded in vitro. […] Signal arising from Alexa Fluor 488 in cell lysates was associated with only full-length antibody after two hours of incubation. After six hours, a lower molecular weight fluorophore-associated protein fragment between 37 and 50 kDa began to appear. An additional protein fragment with a molecular weight between 25 and 37 kDa was observed after 24 hours. […] Together with the above immunofluorescence studies showing the colocalization of α-DNP antibody-derived fluorescence with lysosomes, these studies support that α-DNP antibody degradation is mediated by lysosomal proteases. Lysosomal degradation is further consistent with a mechanism dependent on ASGPR.
A general note: A western blot detects proteins with antibodies after separation by electrophoresis.

The subject of data set [3] is HepG2 cells. The experiment in a line: DNP-GN3-mediated endocytosis of fluorescently labeled α-DNP antibody by adherent HepG2 cells. Format: cell-based, human. Here is the method:
It was next explored whether DNP-GN3 mediates the endocytosis of fluorescently labeled α-DNP antibody.
To explore the cellular mechanism of antibody uptake, cells were treated with chemical inhibitors of several endocytic pathways (FIG. 89).

Data set [4] deals with HepG2 cells. The experiment in a line: Subcellular localization of α-DNP antibody endocytosed via DNP-GN3 (microscopy). The conditions noted are these: after 12 hours. Format: cell-based, human.
Data set [5] has as its system α-DNP antibody. The experiment in a line: Depletion of α-DNP antibody from serum in mice (ELISA). It is filed as in vivo. The conditions noted are these: i.p.; FIG. 79A. On the technique in general: An ELISA detects its analyte on a solid surface through an enzyme-linked reagent.
The subject of data set [6] is PC3 cells. Nature of the data set: Human prostate cancer PC3 tumor growth in mice. Format: in vivo. Particulars: control and comparator arms; FIG. 138. The procedure: The ability of MIF-GN3 to mediate the depletion of MIF in a therapeutically relevant disease model was investigated. […] An experiment was conducted to determine whether the bifunctional molecule MIF-GN3 can deplete sufficient human MIF from serum to slow PC3 tumor growth. Mice were injected with an aliquot of PC3 cells, and the size of the resultant tumors as well as the levels of human MIF in serum were monitored over five weeks. […] Five weeks after the initial PC3 cell injection, the first of the mice reached maximal tumor size ([…]) and was sacrificed (FIG. 138). […] The decrease in human MIF levels mediated by MIF-GN3 is consistent with a mechanism of action in which MIF-GN3 mediates the depletion and degradation of circulating MIF protein. While the α-MIF antibody would not necessarily be expected to decrease the levels of human MIF, it is possible that the antibody mediates MIF neutralization in a manner which masks its signal as determined by ELISA. Alternatively, the α-MIF antibody may mediate depletion or degradation of huMIF by some endocytic mechanism. Another possible explanation is that the α-MIF antibody decrease serum levels of active human MIF to such an extent at early time points that PC3 cells proliferate much more slowly, and therefore fewer cells are actively secreting human MIF.
Mice were sacrificed when their tumor volumes reached 1000 mm^3. […] At this same time point, less than 25% of the mice in any other arm had survived.

For data set [7], the system named is α-DNP antibody. Nature of the data set: Depletion of α-DNP antibody from serum in mice (ELISA). It is filed as in vivo. The conditions noted are these: for serum α-DNP antibody levels compared to PBS: initial 200 μg monoclonal antibody, 21 days, nude mice. Here is the method: FIG. 94 illustrates that serum levels of α-DNP antibody decrease more rapidly following repeated treatment with DNP-GN3. Serum antibody levels were measured using an ELISA assay. Each experimental group contained three mice. Statistical differences in experiments involving in vivo depletion of α-DNP antibody were assessed by repeated measures two-way ANOVA with Tukey's tests for post-hoc comparison of simple effects between each of the treatment groups and PBS.
Single doses of DNP-GN3 were also found to be efficacious at mediating α-DNP antibody depletion, albeit less effectively than daily dosing (FIG. 96). […] Therefore, it was concluded that DNP-GN3 is able to mediate the depletion of a monoclonal antibody from serum, and functions across a wide range of target protein concentrations and dosing regimens.
DNP-GN3 was also found to be efficacious in depleting polyclonal α-DNP antibody from serum collected from mice immunized with DNP-keyhole limpet haemocyanin (KLH) (FIG. 97). […] Thus, the small molecule DNP-GN3 is not restricted in function to only monoclonal mouse antibodies, but is also effective at removing polyclonal α-DNP antibodies from circulation in mice.

In the case of `CC(=O)NC1C(OCCOCCOCCNC(=O)CCOCC(COCCC(=O)NCCOCCOCCOC2OC(CO)C(O)C(O)C2NC(C)=O)(COCCC(=O)NCCOCCOCCOC2OC(CO)C(O)C(O)C2NC(C)=O)NC(=O)CNC(=O)COCCOCCOCCNc2ccc([N+](=O)[O-])cc2[N+](=O)[O-])OC(CO)C(O)C1O` (centres unmarked) [DNP-GN3], in data set [1] (all tested concentrations, FIGS. 93A-93C), the toxicity to mice entry was “not toxic”. Also, in data set [1] (up to 100 mpk, FIGS. 93A-93C), the “body weight or serum liver enzyme levels, control versus treatment groups” value was “no significant differences”. In addition, the tolerability entry in data set [1] (up to doses of 100 mpk) was “well-tolerated”. Besides, in data set [2], the “fluorophore accumulation in lysates of HepG2 cells” value is “accumulate fluorophore in a time- and DNP-GN3-dependent manner”. For the same compound, the “intracellular fluorescence of adherent HepG2 cells” value in data set [3] (FIG. 87A) is “dependent on the concentration of both DNP-GN3 and α-DNP antibody”. Also, the “uptake of α-DNP antibody” value in data set [3] (target protein at 1 nM) is “not effective”. The “colocalization of endocytosed α-DNP antibody with early endosome marker EEA1” value in data set [4] (FIG. 91A) was “No colocalization”. Further, the “colocalization of α-DNP antibody with lysosome membrane protein LAMP2” value in data set [4] (FIG. 91B) was “strong colocalization”. In addition, in data set [5], the “degradation of injected anti-DNP IgG antibodies in mouse serum” value is listed as “can induce degradation”. Also, the PC3 tumor growth entry in data set [6] is “not found to decrease tumor growth”. The entries for the “α-DNP antibody depleted from serum” value in data set [7] (24 hours after a single dose of 1 mpk (vehicle 24%)) and in data set [7] (24 hours after a single dose of 10 mpk (vehicle 24%)) were 52% and 34%, respectively. The “serum α-DNP antibody levels compared to PBS” value in data set [7] (daily 1 mpk) and in data set [7] (twice-daily 1 mpk) was “significantly reduced” in each case. Also, the “serum α-DNP antibody levels” value in data set [7] (daily treatment, initial antibody dose 500 μg) is reported as “significant decrease”. Moreover, the “polyclonal α-DNP antibody removed from serum compared to PBS” value in data set [7] (daily treatment, mice immunized with DNP-KLH, each time point) is reported as “significantly more polyclonal α-DNP antibody was removed”. Moreover, the “α-DNP antibody depletion from serum” value in data set [7] (single dose of 100 mpk) is given as “Significant depletion”.

For the origin of these results see patent US20230087994A1, “TARGETED BIFUNCTIONAL DEGRADERS” (YALE UNIVERSITY, priority 2019, published 2023).
